Active and inactive are the calls of the source. No cut-off for these calls is given here.
What was measured:
Macrophage [1] = assay: Inhibition of LPS-stimulated nitric oxide production in BALB/c mouse macrophages at 1 uM after 20 hrs by Griess assay relative to control; format: functional
Macrophage [2] = assay: Inhibition of LPS-stimulated nitric oxide production in BALB/c mouse macrophages at 30 uM after 20 hrs by Griess assay relative to control; format: functional
Macrophage [3] = assay: Inhibition of LPS-stimulated nitric oxide production in BALB/c mouse macrophages at 3 uM after 20 hrs by Griess assay relative to control; format: functional
Macrophage [4] = assay: Inhibition of LPS-stimulated nitric oxide production in BALB/c mouse macrophages at 10 uM after 20 hrs by Griess assay relative to control; format: functional
Macrophage [5] = assay: Inhibition of LPS-stimulated nitric oxide production in BALB/c mouse macrophages at 100 uM after 20 hrs by Griess assay relative to control; format: functional
Macrophage [6] = assay: Inhibition of LPS-stimulated nitric oxide production in BALB/c mouse macrophages after 20 hrs by Griess assay relative to control; format: functional, cell-based
Macrophage [7] = assay: Inhibition of iNOS expression in LPS-activated BALB/c mouse macrophages at 1 to 100 uM after 12 hrs by SDS-PAGE; format: functional, cell-based

Compound `COc1c2cc(c(O)c1OC)CCCCC(=O)/C=C\c1cc(O)c(O)c-2c1` [MYRICANANIN D] has an inhibition at 1 µM (Macrophage [1]) of 6.12%, an inhibition at 30 µM (Macrophage [2]) of 19.1% and an inhibition at 3 µM (Macrophage [3]) of 17.7%. It also gave an inhibition at 10 µM (Macrophage [4]) of 23.8% and an inhibition at 100 µM (Macrophage [5]) of 31.8%.
Compound `COc1cc2cc(c1O)-c1cc(ccc1O)C[C@H](O)[C@@H](O)CCCC2` [MYRICANANIN A] has an inhibition at 1 µM (Macrophage [1]) of 0.84%, an inhibition at 30 µM (Macrophage [2]) of 50.8% and an inhibition at 3 µM (Macrophage [3]) of -0.13%. The inhibition at 10 µM (Macrophage [4]) was 36%, the inhibition at 100 µM (Macrophage [5]) was 84.4% and the IC50 (Macrophage [6]) was 45.3 µM. For the same compound, the Activity (Macrophage [7]) was “Active”.
`COc1c2cc(c(O)c1OC)CCCCC(=O)C(OC)Cc1cc(O)c(O)c-2c1` (stereo unspecified) [MYRICANANIN E] gave an inhibition at 1 µM (Macrophage [1]) of -3.27%, an inhibition at 30 µM (Macrophage [2]) of 29.8% and an inhibition at 3 µM (Macrophage [3]) of 9.22%. For the same compound, the inhibition at 10 µM (Macrophage [4]) was 15.3% and the inhibition at 100 µM (Macrophage [5]) was 49.2%.
`O=C1CCc2ccc(O)c(c2)-c2cc(ccc2O)CCC(O)C1` (stereo unspecified) [ALNUSONOL] was tested, and the inhibition at 1 µM (Macrophage [1]) was -3.39%, the inhibition at 30 µM (Macrophage [2]) was 41.1% and the inhibition at 3 µM (Macrophage [3]) was 34.8%. The inhibition at 10 µM (Macrophage [4]) was 45.8%, the inhibition at 100 µM (Macrophage [5]) was 54.5% and the IC50 (Macrophage [6]) was 46.2 µM.
Compound `COc1c2cc(c(O)c1OC)CCCCC(=O)C(O)Cc1ccc(O)c-2c1` (stereo unspecified) has an inhibition at 1 µM (Macrophage [1]) of 35.1%, an inhibition at 30 µM (Macrophage [2]) of 55.7% and an inhibition at 3 µM (Macrophage [3]) of 48.7%. For the same compound, the inhibition at 10 µM (Macrophage [4]) was 41.8%, the inhibition at 100 µM (Macrophage [5]) was 65.5% and the IC50 (Macrophage [6]) was 30.2 µM.
`COc1c2cc(c(O)c1OC)CCCC[C@@H]1OC(C)(C)O[C@H]1Cc1ccc(O)c-2c1` [MYRICANANIN B] gave an inhibition at 1 µM (Macrophage [1]) of 17.3%, an inhibition at 30 µM (Macrophage [2]) of 49.7% and an inhibition at 3 µM (Macrophage [3]) of 32.8%. For the same compound, the inhibition at 10 µM (Macrophage [4]) was 39.2%, the inhibition at 100 µM (Macrophage [5]) was 55.8% and the IC50 (Macrophage [6]) was 52.8 µM.
`COc1cc2cc(c1O)-c1cc(ccc1O)CCC(=O)CCCC2` [MYRICANANIN C] showed an inhibition at 1 µM (Macrophage [1]) of 17.3%, an inhibition at 30 µM (Macrophage [2]) of 42.6% and an inhibition at 3 µM (Macrophage [3]) of 32.8%. It also gave an inhibition at 10 µM (Macrophage [4]) of 39.1%, an inhibition at 100 µM (Macrophage [5]) of 50.1% and an IC50 (Macrophage [6]) of 63.5 µM.
`COC1=C(OC)C(=O)C2=C(CCCCC(O)CCc3ccc(O)c2c3)C1=O` (stereo unspecified) [ACTINIDIONE] gave an inhibition at 1 µM (Macrophage [1]) of 9.52%, an inhibition at 30 µM (Macrophage [2]) of 31.4% and an inhibition at 3 µM (Macrophage [3]) of 21.1%. It also gave an inhibition at 10 µM (Macrophage [4]) of 22.9% and an inhibition at 100 µM (Macrophage [5]) of 38.7%.

From ChEMBL document CHEMBL1144165, “Cyclic diarylheptanoids from Myrica nana inhibiting nitric oxide release” (Bioorg Med Chem, 2008)
